In PubChem BioAssay AID463199 (Broad Institute, 2010) one finds AC50 data, which are given here for 35 molecules.

The subject of the experiment is S. cerevisiae Burl-1 ts mutant growth, BacTiter-Glo, 38.5C 24 h. The experiment is described as follows: growth induction of Burl-1 ts yeast mutant, dose response, counter-screen for SUMOylation pathway inhibitor project, whole organism, S. cerevisiae, luminescence (AID 463199). Background: Counterscreens check selectivity or assay interference.

Calls of active or inactive are those of the source.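 Rule for the calls: active = AC50, the dose giving half-maximal effect, exceeds a fixed cutoff for a compound that rescues yeast growth under heat; inactive = the rest, inconclusive results apart.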

For the molecule `O=C(C1CCN(C2CC(=O)N(c3cccc(Cl)c3)C2=O)CC1)N1CCCC1` (stereo not given), the AC50 was > 42 µM (inactive).

In the case of `Cc1cc(N2CCN(C)CC2)nc2ccc(NC(=S)N3CCC4(CC3)OCCO4)cc12`, the AC50 was > 42 µM (inactive). Under `CCOCCCNC(=O)C(c1ccc(OC)cc1)N(Cc1cccs1)C(=O)c1ccccn1` (stereo not given) stands > 42 µM (inactive).

For the molecule `Cc1ccc(C(=O)N/C(=C/c2ccccc2)C(=O)NCC2CCCO2)cc1` (stereo not given), the AC50 was > 21 µM (inactive). The same measure for `O=c1c2c3c(sc2n2cnnc2n1-c1ccccc1)N(Cc1ccccc1)CCC3`: > 42 µM (inactive); for `O=C(CSc1ncn[nH]1)Nc1cccc(S(=O)(=O)N2CCCCCC2)c1`: > 42 µM (inactive). The same measure for `CCC(=O)Nc1ccc(Br)c(Cl)c1`: > 42 µM (inactive). The same measure for `CCN(C(=O)COC(=O)c1cc([N+](=O)[O-])ccc1N1CCOCC1)C1CCCCC1`: > 42 µM (inactive); for `Cc1cc(C)n2nc(SCC(=O)NC3CCCC(C)C3C)nc2n1` (stereo not given): > 42 µM (inactive). For the molecule `CCn1cc(C(=O)NCc2ccccn2)c(=O)c2cc(F)c(N3CCN(C)CC3)cc21`, the AC50 was > 42 µM (inactive). Under `COc1cccc(N2CCN(C3CCCC(C)C3)CC2)c1` (stereo not given) stands > 42 µM (inactive). The same measure for `COc1ccc(-n2c3c(cc(C(=O)NCC(=O)c4ccccc4)c2=O)C(=O)CC(C)(C)C3)cc1`: > 42 µM (inactive); for `CCOC(=O)c1ccc(NC(=O)c2c(NC(=O)CCC(=O)O)sc3c2CCCCC3)cc1`: > 42 µM (inactive). In the case of `CN(C)CCOC(c1ccc(Cl)cc1)c1ccccn1` (stereo not given), the AC50 is > 42 µM (inactive).

As to `O=S(=O)(O)c1ccc(N=NNc2ccc(Br)cc2)cc1`, the AC50 is > 42 µM (inactive). The same measure for `COc1ccc(-c2csc(NC(=O)CS(=O)(=O)c3ccc(F)cc3)n2)cc1OC`: > 42 µM (inactive); for `CC1=NC2(CCCc3c2no[n+]3[O-])N(O)C1(C)C` (stereo not given): > 42 µM (inactive). The same measure for `Cc1ccc(C(=O)O)cc1N=Cc1cc(Br)cc(Br)c1O`: > 42 µM (inactive); for `CC1=C(C(=O)Nc2ccccc2)C(c2ccccc2[N+](=O)[O-])NC(=O)N1` (stereo not given): > 42 µM (inactive). With `CN(C)/C(CN1CCCCC1)=C1\N=C(c2ccccc2)OC1=O`, the AC50 is > 42 µM (inactive). The same measure for `CCOC(=O)C1CCCN(C(=O)c2cc(-c3ccc(F)cc3)nc3ccccc23)C1` (stereo not given): > 42 µM (inactive); for `Cc1cccc(NC(=S)NCc2ccco2)c1C`: > 42 µM (inactive); for `CC(=O)c1cccc(NC(=O)CN(c2cccc(F)c2)S(C)(=O)=O)c1`: > 42 µM (inactive).

Turning to `O=C(c1cn(-c2ccccc2)nc1-c1cccs1)N1CCOCC1`, the AC50 was > 42 µM (inactive). Under `Cc1ccc(C(=O)NCCCN2CCOCC2)cc1` stands > 42 µM (inactive); under `Cc1ccc(O)c(C)c1`, > 42 µM (inactive). The same measure for `CCc1nc2ccc(C(=O)N3CCN(CC)CC3)cc2nc1CC`: > 42 µM (inactive); for `COc1cc(/C=N/NC(=O)c2ccncc2)ccc1OC(=O)c1ccco1`: > 42 µM (inactive).

With `O=C1OCc2cc(NS(=O)(=O)c3cccs3)ccc21`, the AC50 was > 42 µM (inactive). As to `Cc1c(O)ccc(C(=O)CN2C(=O)c3ccccc3C2=O)c1O`, the AC50 is > 42 µM (inactive).

`CCOc1ccc(S(=O)(=O)N2CCN(CC(O)COc3cccc([N+](=O)[O-])c3)CC2)cc1` (stereo not given): the AC50 was > 42 µM (inactive).

Turning to `CC(=O)Nc1ccc(S(=O)(=O)Nc2ccc3c(c2)C(=O)OC3)cc1`, the AC50 is > 42 µM (inactive). Under `CN1C2CCC1CC(OC(=O)c1ccc([N+](=O)[O-])cc1)C2` (stereo not given) stands > 42 µM (inactive). The same measure for `CC(C)CCn1c(C(C)O)nc2ccccc21` (stereo not given): > 42 µM (inactive). Under `CC(=O)c1ccc(NC(=O)CSc2nnc(-c3ccco3)o2)cc1` stands > 42 µM (inactive).

In general, AC50 refers to the midpoint of the concentration-response curve, whichever way the signal moves.
